Laboratory results: publication PMC7311426, “An amphipathic peptide with antibiotic activity against multidrug-resistant Gram-negative bacteria” (Nature Communications, 2020)
≈ marks a conversion by molar mass, not a printed value. Read-outs that look alike come from different tables or passages of the source. Residues, ends and D or L forms follow the SMILES beside them.

Assays:
[1] = tested on: C. albicans; test: microbe, parasite or virus in culture; conditions: for MIC: Candida albicans
[2] = tested on: C. neoformans; test: microbe, parasite or virus in culture; conditions: for MIC: Cryptococcus neoformans, ATCC208821, read-out: BMD MIC, C. neoformans ATCC 208821 H99
[3] = tested on: HK-2 human kidney proximal tubule cells; test: in vitro
Method: (§1) HEK-293 human embryonic kidney cells (ATCC CRL-1573), HepG2 liver hepatocellular carcinoma cells (ATCC HB-8065), and HK-2 human kidney proximal tubule cells (ATCC CRL-2190) cell lines were purchased from ATCC. Cytotoxicity of arenicin-3 variants was determined using the Alamar Blue (resazurin; Sigma-Aldrich, Cat # R7017), with 1% FBS for HK-2 and 10% FBS for HEK-293, and HepG2[40]. Cells were seeded as 2000 cells per well in black wall clear bottom 384-well plates (Corning®, Costar®, Cat # 3712). The cells were incubated for 24 h at 37 °C, 5% CO2. Then peptides were added into each cell containing well. After 24 h incubation, 5 μM resazurin were added per well and incubated at 37 °C for 2 h. Then the fluorescence intensity (FI) was read using a Polarstar® Omega plate reader with excitation/emission 560/590 and CC50 values were determined using Prism 8 following curve fitting and applying the following equation: Percentageviability = (FITEST-FINegative/FIUNTREATED-FINegative)×100.
(§2) Hemolytic activity was measured against isolated human erythrocytes from anonymously donated fresh human blood. Isolated erythrocytes were adjusted to 1 × 10^9 blood cells mL^−1 in phosphate-buffered saline (PBS, pH 7.4), added to the wells of NUNC polypropylene round-bottom 96-well plates (Sigma-Aldrich, Cat # P6866) then up to 300 μg mL^−1 of compound was added per well and incubated for 3 h at 37 °C. Following incubation, samples were centrifuged at 3000 rpm for 20 min, and the supernatants, 100 μL, were carefully collected for measurement. The degree of hemolysis in the samples was determined by measurement of the absorption of the supernatants at 540 nm using the Polarstar-Omega plate reader. 1% Triton-X100 was used as positive control for inducing 100% hemolysis. HC10 and HC50 values were determined using Prism 8 following curve fitting. The use of human blood (sourced from the Australian Red Cross Blood Service) for hemolysis assays was approved by the University of Queensland Institutional Human Research Ethics Committee, Approval Number 2014000031. All in vitro toxicity assays were performed for two independent biological replicates as an 8-point dose response of 3-fold dilution series in triplicate with the highest test concentration of 300 μg mL^−1.

[4] = tested on: HEK-293 human embryonic kidney cells; test: in vitro
Method: as §1, §2

[5] = in vitro; conditions: human
Method: as §1, §2

[6] = tested on: HepG2 liver hepatocellular carcinoma cells; test: in vitro
Method: as §1, §2

[7] = tested on: S. enterica Typhi; test: microbe, parasite or virus in culture; conditions: Typhi
Method in brief: (§3)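 MICs were scored by eye after 18-20 h static incubation at 37 °C, with bacteria at 5 × 10^5 CFU mL^−1 in MHB. Peptides were serially diluted 2-fold over 12 points, top 128 or 64 μg mL^−1. CAMHB (CLSI) and 1% agarose-MHB variants were also run, at least six replicates.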

[8] = tested on: K. pneumoniae; test: microbe, parasite or virus in culture
Method in brief: as §3

[9] = tested on: L. monocytogenes; test: microbe, parasite or virus in culture
Method in brief: as §3

[10] = tested on: E. coli; test: microbe, parasite or virus in culture
Method in brief: as §3

[11] = tested on: A. baumannii; test: microbe, parasite or virus in culture
Method in brief: as §3

[12] = tested on: P. aeruginosa; test: microbe, parasite or virus in culture
Method in brief: as §3

[13] = tested on: human erythrocytes (HRBC); format: cell-based; conditions: for Heamolysis HC10: red cells of human, 3 h
[14] = tested on: E. coli ATCC 25922; test: microbe, parasite or virus in culture; format: cell-based, Escherichia coli; conditions: ATCC 25922
Method: Assays were performed in Mueller Hinton broth (MHB; BD, Cat. No. 211443) for bacteria, and yeast extract-peptone dextrose (YPD; Sigma-Aldrich, Y1500) for yeast. The concentrations of the peptides and comparator antibiotics/antifungals in the assay wells ranged from either 128 or 64 μg mL^−1, to 0.06 or 0.03 μg mL^−1 as a 12-point dose response plated as a 2-fold dilution series across the wells of the plate in duplicate for each independent biological replicate, using a final cell density of 5 × 10^5 CFU mL^−1 and 2.5 × 10^3 CFU mL^−1 for bacteria and yeast respectively. Final assay volumes were 100 μL per well with MICs determined visually following 18-20 h incubation at 37 °C for bacteria, 24 h incubation at 35 °C for Candida albicans, and 24 h incubation at 35 °C with resazurin addition (0.006%; Sigma-Aldrich, Cat # R7017) for a further 3 h for Cryptococcus neoformans, without shaking. Additional bacterial and yeast susceptibility assays were performed in Cation-Adjusted Mueller Hinton Broth (CAMHB; BD, Cat No. 212322) and Roswell Park Memorial Institute (RPMI) 1640 culture medium (Life Technologies Australia, Cat No. 21870092), respectively, as recommended by CLSI guidelines (M07 11th ed[36] and M27 4th ed[37]). […] However, for yeast it was determined that the YPD media was more reliable and robust between repeats and therefore MICs in this media are reported. […] Agarose MICs were determined in MHB with 1% agarose (Bioline molecular grade; Cat no: BIO-41025; high purity, high gel strength). All experiments were performed a minimum of six replicates (n ≥ 6).

[15] = tested on: E. coli K12 MG1655; test: ATP release, BacTiter-Glo luminescence; format: cell-based, Escherichia coli; conditions: E. coli K12, X = xMIC, 24 Y values
Method: ATP was measured using the BacTiter-Glo^TM Microbial Cell Viability Assay (Promega) following the manufacturer’s instructions. The assay was performed for three biological replicates at 37 °C, with luminescence recorded using a Tecan Infinite M1000 Pro plate reader. The fold reduction of ATP was calculated as: Fold reduction ATP = 1 − (Ltreat − Lmedia/Lcontrol − Lmedia); where Ltreat is the luminescence of treated cells, Lmedia is the luminescence of CAMHB without cells, and Lcontrol is the luminescence of untreated cells. Resultant graphs show mean (n = 7) and std error for each data point, prepared in Prism 8. DMSO was included as a control as piperacillin was solubilized in DMSO, with final assay concentration of 2.5%.

[16] = fit headed 10 min, four-parameter variable slope
[17] = fit headed 30 min, four-parameter variable slope
[18] = fit headed 60 min, four-parameter variable slope

Structure (SMILES)	CC50 HK2 [3] [µg/mL]	CC50 HK2, Mean [3] [µg/mL]	CC50 HEK293 [4] [µg/mL]	CC50 HEK293, Mean [4] [µg/mL]	CC50 at 24 h ([5]; HEK-293 cells) [µg/mL]	CC50 at 24 h ([5]; HK-2 cells) [µg/mL]	CC50 at 24 h ([5]; HepG2 cells) [µg/mL]	CC50 HepG2 [6] [µg/mL]	CC50 HepG2, Mean [6] [µg/mL]	BMD MIC [7] [µg/mL]	BMD MIC [8] [µg/mL]	BMD MIC [1] [µg/mL]	BMD MIC ([1]; 24 h) [µg/mL]	BMD MIC [9] [µg/mL]	BMD MIC [2] [µg/mL]	MIC against ESBL producing E. coli DSA 443 [10] [µg/mL]	BMD MIC [11] [µg/mL]	BMD MIC [12] [µg/mL]	Heamolysis HC10, Mean [13] [µg/mL]	Heamolysis HC10 [13] [µg/mL]	other results
C[C@@H]1[C@H](O)[C@@H](C)/C=C/C=C/C=C/C=C/C=C/C=C/C=C/[C@H](O[C@@H]2O[C@H](C)[C@@H](O)[C@H](N)[C@@H]2O)C[C@@H]2O[C@](O)(C[C@@H](O)C[C@@H](O)[C@H](O)CC[C@@H](O)C[C@@H](O)CC(=O)O[C@H]1C)C[C@H](O)[C@H]2C(=O)O [Amphroterocin B, reference compound]																					BMD MIC ([1]; C. albicans ATCC 90028 NCCLS 11, RPMI, mode of 6 replicates): 0.5 µg/mL; BMD MIC ([1]; C. albicans ATCC 90028 NCCLS 11, YPD, 24 h 35 °C, mode of 6 replicates): 1 µg/mL; BMD MIC ([2]; C. neoformans ATCC 208821 H99, RPMI, mode of 6 replicates): 0.5 µg/mL; BMD MIC ([2]; C. neoformans ATCC 208821 H99, YPD, 24 h 35 °C + resazurin 3 h, mode of 6 replicates): 0.5 µg/mL
OC(Cn1cncn1)(Cn1cncn1)c1ccc(F)cc1F [Fluconazole, reference compound]																					MIC ([1]; ATCC90028, 24 h, read-out: BMD MIC): 1 µg/mL (≈ 3.27 µM); MIC ([1]; ATCC90028, read-out: BMD MIC): 0.5 µg/mL (≈ 1.63 µM); MIC ([2]; RPMI, mode of 6 replicates): 2 µg/mL (≈ 6.53 µM); MIC ([2]; YPD, 24 h 35 °C + resazurin 3 h, mode of 6 replicates): 8 µg/mL
CC(C)[C@@H]1NC(=O)CNC(=O)[C@H](CC(N)=O)NC(=O)[C@H](CCCNC(=N)N)NC(=O)[C@H](CCCNC(=N)N)NC(=O)[C@H](C(C)C)NC(=O)[C@@H]2CSSC[C@H](NC(=O)[C@H](C(C)C)NC(=O)[C@H](CCCNC(=N)N)NC1=O)C(=O)N[C@@H](Cc1c[nH]cn1)C(=O)N[C@@H](CCCNC(=N)N)C(=O)N[C@@H](CCCNC(=N)N)C(=O)N[C@H](C(=O)N[C@@H](CC(N)=O)C(=O)O)CSSC[C@H](NC(=O)[C@H](Cc1ccccc1)NC(=O)CN)C(=O)N[C@@H](Cc1c[nH]c3ccccc13)C(=O)N[C@@H](CC(N)=O)C(=O)N[C@@H](C(C)C)C(=O)N2 [NZ17143] (HELM PEPTIDE1{G.F.C.W.N.V.C.V.R.R.N.G.V.R.V.C.H.R.R.C.N}$PEPTIDE1,PEPTIDE1,3:R3-20:R3|PEPTIDE1,PEPTIDE1,7:R3-16:R3$$$V2.0)	>253	>250	>300	>300	> 300	> 250	> 300	>300	>300	0.5	1	>32	32	8	4	0.5 (≈ 0.198 µM)	2	1	>300	>300	MIC, MHB [14]: 0.25 µg/mL (≈ 0.0988 µM)
CCN1CCN(C(=O)N[C@@H](C(=O)N[C@@H]2C(=O)N3[C@@H]2SC(C)(C)[C@@H]3C(=O)O)c2ccccc2)C(=O)C1=O [piperacillin]																					ATP release, nonlinear fit: HillSlope [15, 16]: ~ -467.9; ATP release, nonlinear fit: IC50 [15, 16]: ~ 31.42 xMIC; ATP release, nonlinear fit: LogIC50 [15, 16]: ~ 1.497; ATP release, nonlinear fit: Top [15, 16]: 0.08165; ATP release, nonlinear fit: Bottom ([15]; fit headed 10 min, log(inhibitor) vs. response, variable slope (four parameters)): 0.04818; ATP release, nonlinear fit: Bottom [15, 17]: ~ 0.04736; ATP release, nonlinear fit: IC50 [15, 17]: ~ 0.000 xMIC; ATP release, nonlinear fit: Top [15, 17]: 0.07515; ATP release, nonlinear fit: Bottom [15, 18]: 0.00107; ATP release, nonlinear fit: HillSlope [15, 18]: ~ 0.6194; ATP release, nonlinear fit: LogIC50 [15, 18]: ~ 16.74; ATP release, nonlinear fit: Top [15, 18]: 0.1665; MIC ([10]; Escherichia coli, ATCC700926|MG1655, read-out: BMD MIC, E. coli ATCC 700926 K12 (MG1655), CAMHB, mode of 6 replicates): 2 µg/mL (≈ 3.86 µM)
CC[C@H](C)[C@@H]1NC(=O)[C@H](CCCNC(=N)N)NC(=O)[C@H](C(C)C)NC(=O)CNC(=O)[C@H](CC(N)=O)NC(=O)[C@H](CCCNC(=N)N)NC(=O)[C@H](Cc2ccc(O)cc2)NC(=O)[C@H](C(C)C)NC(=O)[C@@H]2CSSC[C@H](NC1=O)C(=O)N[C@@H](Cc1c[nH]cn1)C(=O)N[C@@H](CCCNC(=N)N)C(=O)N[C@@H](CCCNC(=N)N)C(=O)N[C@H](C(=O)N[C@@H](CC(N)=O)C(=O)O)CSSC[C@H](NC(=O)[C@H](Cc1ccccc1)NC(=O)CN)C(=O)N[C@@H](Cc1c[nH]c3ccccc13)C(=O)N[C@@H](CC(N)=O)C(=O)N[C@@H](C(C)C)C(=O)N2 [NZ17211] (HELM PEPTIDE1{G.F.C.W.N.V.C.V.Y.R.N.G.V.R.I.C.H.R.R.C.N}$PEPTIDE1,PEPTIDE1,3:R3-20:R3|PEPTIDE1,PEPTIDE1,7:R3-16:R3$$$V2.0)	>255	>250	>300	>300	> 300	> 250	> 300	>300	>300	1	2	>32	64	16	4	2.0 (≈ 0.784 µM)	4	2	>300	>300	MIC, MHB [14]: 0.5 µg/mL (≈ 0.196 µM)
